Experimental data: the Deep4Chem optical property database
One block for each compound: values may come before it.

Assay: solvent given as SMILES

Compound: CCN1/C(=C\c2c(-c3ccc(N(C)C)cc3)c(=O)c2=O)C=Cc2ccccc21
- fluorescence lifetime (in C1CCCCC1): 1 ns
- fluorescence lifetime (in Cc1ccccc1): 1.85 ns
- fluorescence lifetime (in ClCCl): 0.1 ns

Compound: COc1ccc2c3c([nH]c2c1)C(C)=NCC3
- fluorescence lifetime (in CC#N): 5.29 ns
- fluorescence lifetime (in CS(C)=O): 2.91 ns
- fluorescence lifetime (in O): 4.65 ns

Compound: c1ccc(-c2nnc(-c3ccc(N4c5ccccc5N(c5ccccc5)c5ccccc54)cc3)o2)cc1
- fluorescence lifetime (in Cc1ccccc1): 9 ns
- fluorescence lifetime (in c1cc(-n2c3ccccc3c3ccccc32)cc(-n2c3ccccc3c3ccccc32)c1): 7 ns

Compound: N#Cc1c(-n2c3ccccc3c3cc(I)ccc32)c(-n2c3ccccc3c3cc(I)ccc32)c(C#N)c(-n2c3ccccc3c3cc(I)ccc32)c1-n1c2ccccc2c2cc(I)ccc21
- fluorescence lifetime (in Cc1ccccc1): 0.3 ns

Compound: c1ccc(-c2nn(-c3ccccc3)c3nc4ccc(N(c5ccccc5)c5cccc6ccccc56)cc4cc23)cc1
- fluorescence lifetime (in C1CCCCC1): 11.3 ns
- fluorescence lifetime (in C1CCOC1): 15.5 ns
- fluorescence lifetime (in CC#N): 16.3 ns
- fluorescence lifetime (in CC(C)=O): 19.3 ns
- fluorescence lifetime (in CCCCCl): 14.9 ns
- fluorescence lifetime (in CCCCOCCCC): 12.9 ns
- fluorescence lifetime (in CN(C)C=O): 15.8 ns

- fluorescence lifetime (in CC1CCCCC1): 0.22 ns
- fluorescence lifetime (in CC#N): 0.67 ns
- fluorescence lifetime (in CO): 0.25 ns
Compound: CCN(CC)c1ccc(-c2nc3cc(C(NC(=O)OC(C)(C)C)C(=O)OC)ccc3o2)c(O)c1 (configuration not stated)

- fluorescence lifetime (in C1CCOC1): 1.13 ns
Compound: CC1=[N+]2C(=C(c3ccc(C(=C(c4ccccc4)c4ccccc4)c4ccccc4)cc3)c3ccc(C)n3[B-]2(F)F)C=C1

- fluorescence lifetime (in ClCCl): 0.65 ns
Compound: CCOc1cccc(-c2nc3c(c4c2-c2ccccc2CC4)-c2ccccc2CC3)c1O

- fluorescence lifetime (in ClCCl): 3.5 ns
Compound: COc1ccc(C2=C(C)C3=C(c4c(-c5ccccn5)nc5ccccn45)c4c(C)c(-c5ccc(OC)cc5)c(C)n4[B-](F)(F)[N+]3=C2C)cc1

- fluorescence lifetime (in ClC(Cl)Cl): 8.5 ns
Compound: CCCCCCCCCCCCSc1cc2c3c(ccc4c5c(SCCCCCCCCCCCC)cc6c7c(ccc(c1c34)c75)C(=O)N(C1CCCCC1)C6=O)C(=O)N(C1CCCCC1)C2=O

- fluorescence lifetime (in ClC(Cl)Cl): 11.4 ns
Compound: CCCCCCN1C(=O)c2cccc3cc(/N=C\c4cn(C)c5ccccc45)cc(c23)C1=O

- fluorescence lifetime (in ClC(Cl)Cl): 8.97 ns
Compound: CCCCCCN1C(=O)c2cccc3cc(/N=C\c4ccc5c(c4)c4ccccc4n5CC)cc(c23)C1=O

Compound: COc1ccc(-c2c3ccc([nH]3)c3nc(c(-c4ccc(C#N)cc4)c4ccc([nH]4)c4ccc([nH]4)c(-c4ccc(OC)cc4)c4ccc2o4)C=C3)cc1
- fluorescence lifetime (in C1CCOC1): 5.6 ns
- fluorescence lifetime (in Cc1ccccc1): 5.65 ns
- fluorescence lifetime (in c1ccccc1): 4.88 ns

- fluorescence lifetime (in CCO): 2.26 ns
- fluorescence lifetime (in O): 1.86 ns
Compound: CN(C)c1ccc2cc3ccc(=[N+](C)C)cc-3oc2c1

Compound: CCOC(=O)C(C(=O)OCC)C1=[N+]2C(=C(c3ccc(C)cc3)c3ccc(C(C(=O)OCC)C(=O)OCC)n3[B-]2(F)F)C=C1
- fluorescence lifetime (in C1CCCCC1): 3.15 ns
- fluorescence lifetime (in C1CCOC1): 2.82 ns
- fluorescence lifetime (in CCOC(C)=O): 2.5 ns
- fluorescence lifetime (in CO): 2.18 ns
- fluorescence lifetime (in Cc1ccccc1): 4.14 ns
- fluorescence lifetime (in ClC(Cl)Cl): 3.62 ns

- fluorescence lifetime (in ClCCl): 7.59 ns
Compound: CCCCC(CC)Cn1c2cc(C#N)ccc2c2cc(-c3ccc(N(c4ccccc4)c4ccccc4)cc3)c(C#N)cc21 (configuration not stated)

- fluorescence lifetime (in ClCCl): 1.2 ns
Compound: c1ccc(N(c2ccccc2)c2ccc(-c3ccc4c(c3)C3(c5ccccc5Sc5ccccc53)c3cc(-c5ccc(N(c6ccccc6)c6ccccc6)cc5)ccc3-4)cc2)cc1

- fluorescence lifetime (in ClCCl): 2.29 ns
Compound: CCCCn1c2c(-c3ccc(N(c4ccccc4)c4ccccc4)cc3)cc(C#N)cc2c2cc(C#N)cc(-c3ccc(N(c4ccccc4)c4ccccc4)cc3)c21

Compound: O=C1c2ccc3c4ccc5c6c(ccc(c7ccc(c2c37)C(=O)N1c1ccncc1)c64)C(=O)N(c1ccncc1)C5=O
- fluorescence lifetime (in C1CCOC1): 1.92 ns
- fluorescence lifetime (in C1COCCO1): 3.27 ns
- fluorescence lifetime (in CC(C)=O): 2.9 ns
- fluorescence lifetime (in CC(C)O): 1.74 ns
- fluorescence lifetime (in CCCCO): 1.85 ns
- fluorescence lifetime (in CCO): 0.77 ns
- fluorescence lifetime (in CCOC(C)=O): 1.34 ns
- fluorescence lifetime (in CN(C)C=O): 1.69 ns
- fluorescence lifetime (in CO): 0.79 ns
- fluorescence lifetime (in CS(C)=O): 0.22 ns
- fluorescence lifetime (in ClC(Cl)(Cl)Cl): 3.75 ns
- fluorescence lifetime (in ClC(Cl)Cl): 3.74 ns

- fluorescence lifetime (in ClC(Cl)Cl): 4 ns
Compound: Cc1ccc(/C2=c3\cc/c(o3)=C(\c3ccc(C)cc3)c3ccc([nH]3)-c3ccc4n3[P-](=O)(=O)[N+]3=C(C=CC3=C4c3ccc[nH]3)c3ccc2[nH]3)cc1
